Measurements: ChEMBL document CHEMBL2429834, “Potent histone deacetylase inhibitors derived from 4-(aminomethyl)-N-hydroxybenzamide with high selectivity for the HDAC6 isoform” (J Med Chem, 2013)

Legend:
[1] = target: T1, Histone deacetylase 7 (Homo sapiens, UniProt Q8WUI4); test: Inhibition of N-terminal GST-tagged recombinant human HDAC7 (518) expressed in baculovirus using acetyl-Lys(trifluoroacetyl)-AMC as substrate after 1 hr by fluorescence plate reader analysis
T1 sequence (Q8WUI4 whole entry): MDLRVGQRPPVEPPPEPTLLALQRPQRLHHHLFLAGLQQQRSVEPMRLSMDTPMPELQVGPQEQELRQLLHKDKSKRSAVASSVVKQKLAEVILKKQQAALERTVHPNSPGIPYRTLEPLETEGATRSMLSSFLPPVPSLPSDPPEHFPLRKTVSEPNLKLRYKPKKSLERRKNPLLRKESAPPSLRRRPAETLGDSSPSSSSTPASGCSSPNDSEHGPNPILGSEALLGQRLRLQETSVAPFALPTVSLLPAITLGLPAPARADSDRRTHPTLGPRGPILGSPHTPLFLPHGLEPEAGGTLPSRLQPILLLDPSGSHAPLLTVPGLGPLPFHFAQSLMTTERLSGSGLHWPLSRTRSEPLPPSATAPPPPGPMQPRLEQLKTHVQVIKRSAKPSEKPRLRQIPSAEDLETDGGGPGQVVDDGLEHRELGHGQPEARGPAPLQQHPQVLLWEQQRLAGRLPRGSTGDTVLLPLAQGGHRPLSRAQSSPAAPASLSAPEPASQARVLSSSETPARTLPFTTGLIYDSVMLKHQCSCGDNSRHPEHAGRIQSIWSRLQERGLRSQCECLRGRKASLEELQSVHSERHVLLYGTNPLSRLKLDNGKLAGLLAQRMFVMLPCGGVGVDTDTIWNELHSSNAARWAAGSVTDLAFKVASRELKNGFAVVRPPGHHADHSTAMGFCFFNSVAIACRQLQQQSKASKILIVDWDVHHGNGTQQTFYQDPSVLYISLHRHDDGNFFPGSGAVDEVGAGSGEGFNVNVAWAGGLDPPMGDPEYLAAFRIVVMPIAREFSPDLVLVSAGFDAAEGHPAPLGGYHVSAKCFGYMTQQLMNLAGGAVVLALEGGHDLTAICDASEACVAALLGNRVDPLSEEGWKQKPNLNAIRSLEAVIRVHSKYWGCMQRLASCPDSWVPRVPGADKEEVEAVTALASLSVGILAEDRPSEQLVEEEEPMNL

[2] = target: Histone deacetylase 5 (Homo sapiens, UniProt Q9UQL6); test: Inhibition of C-terminal His6x-tagged recombinant human HDAC5 (657 to 1123) expressed in baculovirus using acetyl-Lys(trifluoroacetyl)-AMC as substrate after 1 hr by fluorescence plate reader analysis
[3] = target: T2, Protein deacetylase HDAC6 (Homo sapiens, UniProt Q9UBN7); test: Inhibition of N-terminal GST-tagged recombinant HDAC6 (unknown origin) assessed as deacetylation of Ac-Arg-Gly-Lys (Ac) after 1 hr by fluorescence plate reader analysis in presence of trypsin
T2 sequence (Q9UBN7 whole entry): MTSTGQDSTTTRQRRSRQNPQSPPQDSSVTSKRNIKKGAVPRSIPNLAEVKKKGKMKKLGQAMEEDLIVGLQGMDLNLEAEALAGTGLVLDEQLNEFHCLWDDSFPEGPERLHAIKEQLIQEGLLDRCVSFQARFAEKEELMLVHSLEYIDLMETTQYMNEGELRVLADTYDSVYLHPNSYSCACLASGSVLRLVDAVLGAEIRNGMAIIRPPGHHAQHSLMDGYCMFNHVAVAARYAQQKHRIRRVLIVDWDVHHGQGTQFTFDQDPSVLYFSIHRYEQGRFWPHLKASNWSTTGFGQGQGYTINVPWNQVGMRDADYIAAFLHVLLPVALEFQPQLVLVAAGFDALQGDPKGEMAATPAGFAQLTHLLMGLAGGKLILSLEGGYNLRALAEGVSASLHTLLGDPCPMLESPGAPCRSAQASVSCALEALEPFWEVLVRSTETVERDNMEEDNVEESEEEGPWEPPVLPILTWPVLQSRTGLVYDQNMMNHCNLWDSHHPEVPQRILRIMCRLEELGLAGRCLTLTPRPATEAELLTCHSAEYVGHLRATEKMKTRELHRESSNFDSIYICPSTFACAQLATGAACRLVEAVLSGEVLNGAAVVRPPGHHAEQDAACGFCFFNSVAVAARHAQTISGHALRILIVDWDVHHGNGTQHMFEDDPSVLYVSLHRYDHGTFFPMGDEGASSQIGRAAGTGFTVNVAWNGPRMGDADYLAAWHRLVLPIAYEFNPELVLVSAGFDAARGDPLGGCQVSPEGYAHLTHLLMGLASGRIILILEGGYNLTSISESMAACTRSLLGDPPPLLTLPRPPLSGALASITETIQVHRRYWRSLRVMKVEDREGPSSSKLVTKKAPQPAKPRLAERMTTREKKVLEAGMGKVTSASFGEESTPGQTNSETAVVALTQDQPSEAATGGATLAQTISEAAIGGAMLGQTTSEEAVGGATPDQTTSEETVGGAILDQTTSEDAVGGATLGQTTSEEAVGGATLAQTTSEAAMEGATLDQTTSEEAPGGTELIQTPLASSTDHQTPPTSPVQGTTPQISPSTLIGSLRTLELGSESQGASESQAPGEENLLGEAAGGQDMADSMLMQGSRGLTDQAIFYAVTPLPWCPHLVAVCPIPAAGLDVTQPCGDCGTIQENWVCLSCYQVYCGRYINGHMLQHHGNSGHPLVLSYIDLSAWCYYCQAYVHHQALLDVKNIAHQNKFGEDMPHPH

[4] = Kinetic solubility of the compound in potassium phosphate buffer at pH 6.8 by turbidometric analysis; assay type: physicochemical; settings: read-out: Kinetic_solubility
[5] = target: T2, Protein deacetylase HDAC6; test: Inhibition of HDAC6 in human HeLa cells using acetyl tubulin as substrate assessed as Ac-tubulin accumulation in cytosol after 6 hrs by immunofluorescence assay
[6] = target: Histone deacetylase 1 (Homo sapiens, UniProt Q13547); test: Inhibition of full length GST-tagged recombinant human HDAC1 expressed in baculovirus using Arg-His-Lys-Lys (Ac) as substrate after 2 hrs by fluorescence plate reader analysis
[7] = target: Histone deacetylase 3 (Homo sapiens, UniProt O15379); test: Inhibition of full length C-terminal His6x-tagged recombinant human HDAC3 expressed in baculovirus using Arg-His-Lys-Lys (Ac) as substrate after 2 hrs by fluorescence plate reader analysis
[8] = target: Histone deacetylase 4 (Homo sapiens, UniProt P56524); test: Inhibition of N-terminal GST-tagged recombinant human HDAC4 (627 to 1085) expressed in baculovirus using acetyl-Lys(trifluoroacetyl)-AMC as substrate after 2 hrs by fluorescence plate reader analysis
Histone deacetylase 4, sequence (P56524 whole entry): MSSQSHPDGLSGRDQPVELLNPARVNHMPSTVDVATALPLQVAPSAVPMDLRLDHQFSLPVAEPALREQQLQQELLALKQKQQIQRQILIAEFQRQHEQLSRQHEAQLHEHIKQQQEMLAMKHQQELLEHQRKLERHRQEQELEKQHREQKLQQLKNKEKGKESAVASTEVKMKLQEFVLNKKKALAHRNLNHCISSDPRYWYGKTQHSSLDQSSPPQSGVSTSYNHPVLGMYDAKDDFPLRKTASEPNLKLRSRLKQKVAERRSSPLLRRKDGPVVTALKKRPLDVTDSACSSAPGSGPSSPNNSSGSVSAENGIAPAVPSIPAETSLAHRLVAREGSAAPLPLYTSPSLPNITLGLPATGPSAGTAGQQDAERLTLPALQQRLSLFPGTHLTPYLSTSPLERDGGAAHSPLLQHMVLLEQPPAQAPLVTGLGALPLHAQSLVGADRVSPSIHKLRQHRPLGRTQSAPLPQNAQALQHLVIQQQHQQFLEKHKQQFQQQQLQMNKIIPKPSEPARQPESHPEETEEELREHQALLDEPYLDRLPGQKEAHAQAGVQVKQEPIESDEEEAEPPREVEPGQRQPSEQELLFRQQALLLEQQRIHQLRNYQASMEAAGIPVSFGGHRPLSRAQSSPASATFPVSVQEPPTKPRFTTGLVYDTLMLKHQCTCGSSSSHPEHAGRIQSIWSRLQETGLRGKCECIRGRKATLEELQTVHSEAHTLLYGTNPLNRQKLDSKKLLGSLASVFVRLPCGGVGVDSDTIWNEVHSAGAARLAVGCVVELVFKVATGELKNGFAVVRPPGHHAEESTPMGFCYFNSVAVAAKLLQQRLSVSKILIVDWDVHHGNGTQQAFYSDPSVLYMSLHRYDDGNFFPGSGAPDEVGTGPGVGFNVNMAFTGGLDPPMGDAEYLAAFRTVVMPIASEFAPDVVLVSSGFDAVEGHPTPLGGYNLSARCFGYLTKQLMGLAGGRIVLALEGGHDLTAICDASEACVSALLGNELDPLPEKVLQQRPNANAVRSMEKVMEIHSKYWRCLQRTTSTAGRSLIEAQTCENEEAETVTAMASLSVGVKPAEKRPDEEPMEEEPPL

Histone deacetylase 1, sequence (Q13547 whole entry): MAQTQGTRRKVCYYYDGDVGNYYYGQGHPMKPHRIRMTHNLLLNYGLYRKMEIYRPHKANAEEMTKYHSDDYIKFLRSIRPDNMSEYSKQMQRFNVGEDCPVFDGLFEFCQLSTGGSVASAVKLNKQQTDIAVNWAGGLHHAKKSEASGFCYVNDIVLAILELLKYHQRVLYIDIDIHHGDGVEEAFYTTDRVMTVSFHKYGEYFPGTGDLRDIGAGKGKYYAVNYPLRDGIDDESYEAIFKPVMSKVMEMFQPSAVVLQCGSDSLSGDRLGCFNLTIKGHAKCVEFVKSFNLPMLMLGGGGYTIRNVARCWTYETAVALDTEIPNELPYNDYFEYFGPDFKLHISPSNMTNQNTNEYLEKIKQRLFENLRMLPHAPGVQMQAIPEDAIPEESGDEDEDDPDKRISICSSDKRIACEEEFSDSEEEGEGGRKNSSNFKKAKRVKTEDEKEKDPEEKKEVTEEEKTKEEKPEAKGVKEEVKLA
Histone deacetylase 3, sequence (O15379 whole entry): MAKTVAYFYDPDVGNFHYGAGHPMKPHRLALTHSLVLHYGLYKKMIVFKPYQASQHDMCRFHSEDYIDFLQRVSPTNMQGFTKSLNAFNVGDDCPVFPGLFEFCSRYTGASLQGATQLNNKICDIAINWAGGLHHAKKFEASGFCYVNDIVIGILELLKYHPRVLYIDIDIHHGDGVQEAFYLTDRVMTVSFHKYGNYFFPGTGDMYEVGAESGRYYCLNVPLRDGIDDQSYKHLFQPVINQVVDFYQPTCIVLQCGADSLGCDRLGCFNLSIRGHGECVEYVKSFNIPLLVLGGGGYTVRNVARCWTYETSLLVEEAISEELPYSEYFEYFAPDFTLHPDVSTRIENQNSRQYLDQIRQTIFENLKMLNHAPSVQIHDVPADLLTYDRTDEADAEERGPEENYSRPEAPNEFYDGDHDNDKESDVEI
Histone deacetylase 5, sequence (Q9UQL6 whole entry): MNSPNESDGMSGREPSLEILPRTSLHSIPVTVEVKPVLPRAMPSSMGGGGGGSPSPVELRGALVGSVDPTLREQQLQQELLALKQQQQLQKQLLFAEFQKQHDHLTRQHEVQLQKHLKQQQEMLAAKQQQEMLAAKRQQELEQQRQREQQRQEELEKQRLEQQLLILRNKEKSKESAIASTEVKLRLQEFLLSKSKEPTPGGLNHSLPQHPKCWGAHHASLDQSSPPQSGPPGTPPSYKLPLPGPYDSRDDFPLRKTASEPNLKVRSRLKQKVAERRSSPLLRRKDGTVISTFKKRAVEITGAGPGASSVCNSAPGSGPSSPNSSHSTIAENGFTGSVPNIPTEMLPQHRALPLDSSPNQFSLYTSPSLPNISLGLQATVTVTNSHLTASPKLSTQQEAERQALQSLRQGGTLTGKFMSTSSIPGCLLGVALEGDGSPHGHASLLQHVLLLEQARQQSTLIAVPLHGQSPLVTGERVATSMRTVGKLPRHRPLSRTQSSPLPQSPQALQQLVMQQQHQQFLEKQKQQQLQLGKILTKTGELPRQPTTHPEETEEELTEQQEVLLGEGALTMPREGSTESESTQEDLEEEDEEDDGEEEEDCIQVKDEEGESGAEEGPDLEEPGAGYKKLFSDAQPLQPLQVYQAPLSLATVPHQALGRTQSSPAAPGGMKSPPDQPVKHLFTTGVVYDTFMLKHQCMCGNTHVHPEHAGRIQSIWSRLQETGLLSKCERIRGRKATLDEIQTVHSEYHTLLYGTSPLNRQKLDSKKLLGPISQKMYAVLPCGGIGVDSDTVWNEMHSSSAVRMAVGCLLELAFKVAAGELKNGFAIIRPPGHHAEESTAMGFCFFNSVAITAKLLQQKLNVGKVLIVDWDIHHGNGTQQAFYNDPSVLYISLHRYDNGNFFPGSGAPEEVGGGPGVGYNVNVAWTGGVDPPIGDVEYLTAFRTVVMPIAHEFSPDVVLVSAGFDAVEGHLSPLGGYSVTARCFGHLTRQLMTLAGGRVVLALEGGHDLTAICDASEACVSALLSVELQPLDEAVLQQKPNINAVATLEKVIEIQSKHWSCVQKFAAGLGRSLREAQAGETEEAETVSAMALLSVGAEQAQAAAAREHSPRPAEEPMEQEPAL

| SMILES | IC50 [1] [µM] | IC50 [2] [µM] | IC50 [3] [µM] | solubility kinetic [4] [µM] | IC50 [5] [µM] | IC50 [6] [µM] | IC50 [7] [µM] | IC50 [8] [µM] |
| --- | --- | --- | --- | --- | --- | --- | --- | --- |
| CC(C)(C)C(=O)N1Cc2ccc(C(=O)NO)cc2C1 | > 50 | > 50 | 0.089 | > 200 | 0.56 | > 50 | > 50 | > 50 |
| Cn1cccc1C(=O)N1CCc2cc(C(=O)NO)ccc2C1 | > 50 | > 50 | 0.036 | > 200 | 0.21 | 45 | 46 | > 50 |
| Cn1cccc1C(=O)N1CCCc2cc(C(=O)NO)ccc2C1 | > 50 | > 50 | 0.26 | > 200 | 1.48 | > 50 | > 50 | > 50 |
| CC(C)(C)C(=O)N1CCc2cc(C(=O)NO)ccc2C1 | > 50 | > 50 | 0.052 | > 200 | 0.43 | > 50 | > 50 | > 50 |

Second part, the compound after the results:

| IC50 [1] [µM] | IC50 [2] [µM] | IC50 [3] [µM] | solubility kinetic [4] [µM] | IC50 [5] [µM] | IC50 [6] [µM] | IC50 [7] [µM] | IC50 [8] [µM] | SMILES |
| --- | --- | --- | --- | --- | --- | --- | --- | --- |
| > 50 | > 50 | 0.04 | > 200 | 0.34 | > 50 | > 50 | > 50 | Cn1cccc1C(=O)N1Cc2ccc(C(=O)NO)cc2C1 |
| 4.6 | 3.3 | 0.019 | > 200 | 0.46 | 5.8 | 4.5 | 15 | Cn1cccc1C(=O)NCc1ccc(C(=O)NO)cc1 |
